Laboratory results reported in patent US9499550B2 (BRISTOL-MYERS SQUIBB COMPANY, priority 2012, dated 2016).
Where two headings read alike, the source gives them in different places.

What was measured:
[1] = test system: HCV genotype 1a (H77 strain) replicon in HUH-7 cells; assay: HCV replicon luciferase reporter assay, genotype 1a; format: cell-based; conditions: Hepatitis C virus, Huh-7, 72 h, 3 days incubation
Procedure, shortened: (§1)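 Replicon inhibition for both genotypes was measured as Renilla luciferase signal (EnduRen, 7.5 μM final, 2 h) after 3-day, 37° C exposure of replicon-bearing HUH-7 cells in 4% FCS DMEM, 0.5% DMSO. The 1b construct carries S1179I; the 1a H77 construct carries P1496L and S2204I. Twenty-point, 3-fold dilutions were fitted four-parametrically for EC50, and CC50 was taken from multiplexed Cell Titer-Blue.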

[2] = test system: HCV genotype 1b (Con1) replicon in HUH-7 cells; assay: HCV replicon luciferase reporter assay, genotype 1b; format: cell-based; conditions: Hepatitis C virus, Huh-7, 72 h, 3 days incubation
Procedure, shortened: as §1

[3] = HCV genotype 1a replicon luciferase, read-out: LE_1a (EC50, range)
[4] = HCV genotype 1b replicon luciferase, read-out: LE_1b (EC50, range)
[5] = HCV genotype 1a replicon luciferase assay, range class, read-out: LE_1a (EC50, range)
[6] = HCV genotype 1b replicon luciferase assay, range class, read-out: LE_1b (EC50, range)

C[C@H]1CC/C=C\[C@@H]2C[C@@]2(C(=O)NS(=O)(=O)C2CC2)NC(=O)[C@@H]2C[C@@H](Oc3nccc4c5c(ccc34)OCCO5)CN2C(=O)[C@@H](NC(=O)O[C@@H]2C[C@@H]3C[C@@H]3C2)[C@H](C)C1 [Compound 5263, (1R,3r,5S)-bicyclo[3.1.0]hexan-3-yl((2R,6S,7R,9S,13aS,14aR,16aS,Z)-14a-((cyclopropylsulfonyl)carbamoyl)-2-((2,3-dihydro-[1,4]dioxino[2,3-f]isoquinolin-7-yl)oxy)-7,9-dimethyl-5,16-dioxo-1,2,3,5,6,7,8,9,10,11,13a,14,14a,15,16,16a-hexadecahydrocyclopropa[e]pyrrolo[1,2-a][1,4]diazacyclopentadecin-6-yl)carbamate]
EC50 [1, 3]: 4.82 to 103 nM
EC50 [2, 4]: < 5.46 nM

COc1ccc2c(O[C@@H]3C[C@H]4C(=O)N[C@]5(C(=O)NS(=O)(=O)C6CC6)C[C@H]5/C=C\CC[C@H](C)C[C@@H](C)[C@H](NC(=O)O[C@@H]5C[C@@H]6C[C@@H]6C5)C(=O)N4C3)nc(-c3ccc(OC)c(Cl)c3)cc2c1 [Compound 3053, (1R,3r,5S)-bicyclo[3.1.0]hexan-3-yl((2R,6S,7R,9S,13aS,14aR,16aS,Z)-2-((3-(3-chloro-4-methoxyphenyl)-6-methoxyisoquinolin-1-yl)oxy)-14a-((cyclopropylsulfonyl)carbamoyl)-7,9-dimethyl-5,16-dioxo-1,2,3,5,6,7,8,9,10,11,13a,14,14a,15,16,16a-hexadecahydrocyclopropa[e]pyrrolo[1,2-a][1,4]diazacyclopentadecin-6-yl)carbamate]
EC50 [1, 5]: < 5.46 nM
EC50 [2, 6]: < 5.46 nM

COc1nnc(O[C@@H]2C[C@H]3C(=O)N[C@]4(C(=O)NS(=O)(=O)C5(C)CC5)C[C@H]4/C=C\CC[C@H](C)C[C@@H](C)[C@H](NC(=O)NC(C)(C)C)C(=O)N3C2)c2ccccc12 [Compound 5011, (2R,6S,7R,9S,13aS,14aR,16aS,Z)-6-(3-(tert-butyl)ureido)-2-((4-methoxyphthalazin-1-yl)oxy)-7,9-dimethyl-N-((1-methylcyclopropyl)sulfonyl)-5,16-dioxo-1,2,3,5,6,7,8,9,10,11,13a,14,14a,15,16,16a-hexadecahydrocyclopropa[e]pyrrolo[1,2-a][1,4]diazacyclopentadecine-14a-carboxamide]
EC50 ([1]; HCV genotype 1a replicon luciferase, read-out: LE_1a (EC50)): 41.1 nM
EC50 [1, 3]: 4.82 to 103 nM
EC50 ([2]; HCV genotype 1b replicon luciferase, read-out: LE_1b (EC50)): 14.2 nM
EC50 [2, 4]: 4.82 to 103 nM

COc1ccc2c(O[C@@H]3C[C@H]4C(=O)N[C@]5(C(=O)NS(=O)(=O)C6(C)CC6)C[C@H]5/C=C\CC[C@@H](C)C[C@@H](C)[C@H](NC(=O)OC(C)(C)C(F)(F)F)C(=O)N4C3)nc(-c3ccc(OC(C)C)cc3)nc2c1 [Compound 3012, 1,1,1-trifluoro-2-methylpropan-2-yl((2R,6S,7R,9R,13aS,14aR,16aS,Z)-2-((2-(4-isopropoxyphenyl)-7-methoxyquinazolin-4-yl)oxy)-7,9-dimethyl-14a-(((1-methylcyclopropyl)sulfonyl)carbamoyl)-5,16-dioxo-1,2,3,5,6,7,8,9,10,11,13a,14,14a,15,16,16a-hexadecahydrocyclopropa[e]pyrrolo[1,2-a][1,4]diazacyclopentadecin-6-yl)carbamate]
EC50 [1, 5]: < 5.46 nM
EC50 [2, 6]: < 5.46 nM

CCOc1cnc(O[C@@H]2C[C@H]3C(=O)N[C@]4(C(=O)NS(=O)(=O)C5(C)CC5)C[C@H]4/C=C\CC[C@@H](C)C[C@@H](C)[C@H](NC(=O)Oc4ccccc4F)C(=O)N3C2)c2ccccc12 [Compound 4139, 2-fluorophenyl (2R,6S,7R,9R,13aS,14aR,16aS,Z)-2-(4-ethoxyisoquinolin-1-yloxy)-7,9-dimethyl-14a-(1-methylcyclopropylsulfonylcarbamoyl)-5,16-dioxo-1,2,3,5,6,7,8,9,10,11,13a,14,14a,15,16,16a-hexadecahydrocyclopropa[e]pyrrolo[1,2-a][1,4]diazacyclopentadecin-6-ylcarbamate]
EC50 [1, 3]: 4.82 to 103 nM
EC50 [2, 4]: 4.82 to 103 nM

COc1cc2ccnc(O[C@@H]3C[C@H]4C(=O)N[C@]5(C(=O)NS(=O)(=O)C6(CF)CC6)C[C@H]5/C=C\CC[C@@H](C)C[C@@H](C)[C@H](NC(=O)C(C)(C)C)C(=O)N4C3)c2cc1F [Compound 4165, (2R,6S,7R,9R,13aS,14aR,16aS,Z)-2-(7-fluoro-6-methoxyisoquinolin-1-yloxy)-N-(1-(fluoromethyl)cyclopropylsulfonyl)-7,9-dimethyl-5,16-dioxo-6-pivalamido-1,2,3,5,6,7,8,9,10,11,13a,14,14a,15,16,16a-hexadecahydrocyclopropa[e]pyrrolo[1,2-a][1,4]diazacyclopentadecine-14a-carboxamide]
EC50 [1, 3]: < 5.46 nM
EC50 [2, 4]: < 5.46 nM

[2H]C([2H])([2H])C(OC(=O)N[C@@H]1C(=O)N2C[C@H](Oc3nccc4cc(OCCC)ccc34)C[C@H]2C(=O)N[C@]2(C(=O)NS(=O)(=O)C3CC3)C[C@H]2/C=C\CC[C@@H](C)C[C@H]1C)(C([2H])([2H])[2H])C(F)(F)F [Compound 5173]
EC50 [1, 3]: < 5.46 nM
EC50 [2, 4]: < 5.46 nM

C[C@@H]1CC/C=C\[C@@H]2C[C@@]2(C(=O)NS(=O)(=O)C2(C)CC2)NC(=O)[C@@H]2C[C@@H](Oc3nc(OCC(F)F)cc4c(Cl)cccc34)CN2C(=O)[C@@H](NC(=O)OC(C)(C)C(F)(F)F)[C@H](C)C1 [Compound 1098, 1,1,1-trifluoro-2-methylpropan-2-yl((2R,6S,7R,9R,13aS,14aR,16aS,Z)-2-((5-chloro-3-(2,2-difluoroethoxyl)isoquinolin-1-yl)oxy)-7,9-dimethyl-14a-(((1-methylcyclopropyl)sulfonyl)carbamoyl)-5,16-dioxo-1,2,3,5,6,7,8,9,10,11,13a,14,14a,15,16,16a-hexadecahydrocyclopropa[e]pyrrolo[1,2-a][1,4]diazacyclopentadecin-6-yl)carbamate]
EC50 [1, 5]: < 5.46 nM
EC50 [2, 6]: < 5.46 nM

CCOc1cc2ccnc(O[C@@H]3C[C@H]4C(=O)N[C@]5(C(=O)NS(=O)(=O)C6CC6)C[C@H]5/C=C\CC[C@@H](C)C[C@@H](C)[C@H](NC(=O)OC(C)(C)C)C(=O)N4C3)c2cc1F [Compound 5399, tert-butyl ((2R,6S,7R,9R,13aS,14aR,16aS,Z)-14a-((cyclopropylsulfonyl)carbamoyl)-2-((6-ethoxy-7-fluoroisoquinolin-1-yl)oxy)-7,9-dimethyl-5,16-dioxo-1,2,3,5,6,7,8,9,10,11,13a,14,14a,15,16,16a-hexadecahydrocyclopropa[e]pyrrolo[1,2-a][1,4]diazacyclopentadecin-6-yl)carbamate]
EC50 [1, 3]: 0.51 to 1 nM
EC50 [2, 4]: 0.1 to 0.5 nM

CC[C@@H]1C[C@@H](C)CC/C=C\[C@@H]2C[C@@]2(C(=O)NS(=O)(=O)C2CC2)NC(=O)[C@@H]2C[C@@H](Oc3nc(OC)cc4ccccc34)CN2C(=O)[C@H]1NC(=O)OC(C)(C)C(F)(F)F [Compound 6002, 1,1,1-trifluoro-2-methylpropan-2-yl((2R,6S,7R,9S,13aS,14aR,16aS,Z)-14a-((cyclopropylsulfonyl)carbamoyl)-7-ethyl-2-((3-methoxyisoquinolin-1-yl)oxy)-9-methyl-5,16-dioxo-1,2,3,5,6,7,8,9,10,11,13a,14,14a,15,16,16a-hexadecahydrocyclopropa[e]pyrrolo[1,2-a][1,4]diazacyclopentadecin-6-yl)carbamate]
EC50 [1, 3]: 4.82 to 103 nM
EC50 [2, 4]: < 5.46 nM

CC(C)Oc1cc2c(Cl)cccc2c(O[C@@H]2C[C@H]3C(=O)N[C@]4(C(=O)NS(=O)(=O)C5(C)CC5)C[C@H]4/C=C\CC[C@H](C)C[C@@H](C)[C@H](NC(=O)OC(C)(C)C(F)(F)F)C(=O)N3C2)n1 [Compound 1101, 1,1,1-trifluoro-2-methylpropan-2-yl((2R,6S,7R,9S,13aS,14aR,16aS,Z)-2-((5-chloro-3-isopropoxyisoquinolin-1-yl)oxy)-7,9-dimethyl-14a-(((1-methylcyclopropyl)sulfonyl)carbamoyl)-5,16-dioxo-1,2,3,5,6,7,8,9,10,11,13a,14,14a,15,16,16a-hexadecahydrocyclopropa[e]pyrrolo[1,2-a][1,4]diazacyclopentadecin-6-yl)carbamate]
EC50 [1, 5]: 4.82 to 103 nM
EC50 [2, 6]: 4.82 to 103 nM

COc1cc2c(OC)cnc(O[C@@H]3C[C@H]4C(=O)N[C@]5(C(=O)NS(=O)(=O)C6(CF)CC6)C[C@H]5/C=C\CC[C@@H](C)C[C@@H](C)[C@H](NC(=O)OC(C)(C)C(F)(F)F)C(=O)N4C3)c2cc1F [Compound 4160]
EC50 ([1]; GETYPE1A, HCV genotype 1a replicon luciferase, read-out: LE_1a (EC50, range)): < 5.46 nM
EC50 ([2]; GETYPE1B, HCV genotype 1b replicon luciferase, read-out: LE_1b (EC50, range)): < 5.46 nM

COc1ccc2nc(C(F)(F)F)c(O[C@@H]3C[C@H]4C(=O)N[C@]5(C(=O)NS(=O)(=O)C6(C)CC6)C[C@H]5/C=C\CC[C@@H](C)C[C@@H](C)[C@H](NC(=O)OC(C)(C)C)C(=O)N4C3)nc2c1 [Compound 4183, tert-butyl (2R,6S,7R,9R,13aS,14aR,16aS,Z)-2-(7-methoxy-3-(trifluoromethyl)quinoxalin-2-yloxy)-7,9-dimethyl-14a-(1-methylcyclopropylsulfonylcarbamoyl)-5,16-dioxo-1,2,3,5,6,7,8,9,10,11,13a,14,14a,15,16,16a-hexadecahydrocyclopropa[e]pyrrolo[1,2-a][1,4]diazacyclopentadecin-6-ylcarbamate]
EC50 [1, 3]: < 5.46 nM
EC50 [2, 4]: < 5.46 nM
